“And” between values parts separate entries of the source, which are not always exact repeats. Equal values may be shown once.
Legend:
[1] = tested on: HPV-11; test: Therapeutic activity of CTC-96 ointment on human condylomas induced by HPV-11, HPV-11-infected external human xenograft SCID mouse model; assay type: in vivo, SCID mice; conditions: for Graft Size Growth, Means ± SD: thrice a week for 6 weeks on the graft
Experimental: Two different dose levels of CTC-96™ (1%, 0.1%) in an ointment formulation and the vehicle alone were evaluated. SCID mice were grafted on each side of the dorsum with an HPV-11-infected foreskin fragment. The HPV-11-infected grafts were left to grow for 6 weeks before treatment was started and continued for 6 weeks. During the treatment phase, the drug was administered thrice a week, directly on the graft. Graft length, width, and height were measured every two weeks during the treatment phase. At the end of the study, the animals were sacrificed. The grafts were measured, recovered, and processed for histology. HPV infection in tissue sections is defined by the presence of two out of three of the following features: acanthosis, koilocytosis, or parakeratosis.
The Graft Size Growth (GSG) index was our primary endpoint in this evaluation of CTC-96™. […] However, there is also a marked increase in the variance of the GSG in the high dose CTC-96™ group.
In our analysis, to measure graft size growth we used a composite index that summarizes for each mouse the growth of the two grafts borne by the animal, each from a different foreskin donor. If instead we look at the growth of each individual graft, we can see that the means, medians, or variances of the graft size growth are more alike among the three treatment groups as shown in FIG. 1. The ANOVA fails to show a treatment effect on the growth of the individual grafts.

[2] = tested on: Bovine Papillomavirus Type 1 (BPV-1); test: Inhibition of BPV-1 transformation of C127 mouse epithelial cells: exposure of cells pretreated with virus to drug; assay type: cell-based; conditions: CTC-96 5 μg/ml added 5 hours after virus; counted on day 12; duplicate values
Experimental: (§1) Experiments were performed to determine if CTC-96™ can inactivate the ability of bovine papillomavirus type 1 (BPV-1) to morphologically transform C127 mouse epithelial cells in culture. Cell-free stocks of BPV-1 were treated with CTC-96™ or placebo. In order to detect the transforming ability of BPV-1, sub-confluent cultures of C127 mouse cells are infected with a standardized inoculate of BPV-1. For the positive controls, stock virus was added to the culture medium present on the cells. The presence of morphologically transformed foci was counted after 2 weeks and then again at 3 weeks. Controls included non-infected cells (with or without drug) and untreated BPV-1.
To further evaluate the time course of interaction between CTC-96™ and Papillomavirus the following experiment was performed. Virus was put on C127 mouse epithelial cells in culture at time 0 and incubated for 5 hours. Medium was then removed and replaced with medium plus drug. Cells were then re-fed every 2 days and the experiments counted on day 12.

[3] = tested on: HPV-11; test: Prophylactic (topical microbicide) activity: human grafts exposed to CTC-96 for 1 hour, washed, then exposed to HPV-11; xenograft in the SCID mouse; assay type: in vivo
Experimental: Given the virucidal activity of CTC-96™, a series of experiments was performed to evaluate the prophylactic activity of the compound under conditions resembling that of the use of a topical microbicide. When using a topical microbicide the target organ is first exposed to the microbicide before exposure to the virus. Various concentrations of CTC-96™ were evaluated in a model of HPV-11-infected human xenograft in the SCID mouse. The human grafts were exposed to CTC-96™ for 1 hour prior to exposure to HPV-11 and engraftment. Because CTC-96™ is virucidal, it was washed off the foreskin fragments before exposure to the virus. The HPV-11-infected grafts were allowed to grow for 12 weeks. After 12 weeks, the animals were sacrificed and the grafts recovered, measured and processed. Graft size, expressed as the composite geometric mean diameter of the two grafts borne by the animal, was the primary endpoint. Histology of the grafts was examined for the presence of HPV. Grafts were also processed for detection of HPV-11 mRNAs transcripts by reverse transcriptase-polymerase chain reaction (RT-PCR).
Grafts that are not infected by HPV proliferate poorly and tend to be eliminated by the mouse's host defenses as a foreign body. The residual fibrous tissue is a scar. In order to analyze the results properly, grafts that were truly negative (graft showing a healthy human epithelium) as well as those showing a foreign body reaction or fibrous tissue were counted as negative for HPV.
Table 7 summarizes the immunocytochemistry results for the presence of HPV capsid antigen in the grafts. As the concentration of CTC-96™ increases, the number of grafts displaying either fibrous tissue or a foreign body reaction also increases. […] Again, a strong microbicidal effect of CTC-96™ is observed.

[4] = tested on: Bovine Papillomavirus Type 1 (BPV-1); test: Inhibition of BPV-1 transformation of C127 mouse epithelial cells: pretreatment and post-treatment combined; assay type: cell-based
Experimental: as §1
To further clarify the dynamics of CTC-96™ Papillomavirus interaction an experiment was performed to combine exposure of virus to the drug prior to cellular infection and exposure of infected cells to the drug. For this purpose BPV-1 was incubated with either CTC-96™ or placebo, diluted and then added to C127 Mouse Epithelial Cells in culture with the addition of CTC-96™ or placebo (Table 11). Addition of 10 μg/ml or 20 μg/ml CTC-96™ to the cell cultures was toxic to the cells. […] Pre-treatment with 50 μg/ml CTC-96™ but not placebo halved the foci number in the normal medium post-treatment control. Thus a small microbicidal effect is probable even at these low concentrations of CTC-96™. The main activity at these concentrations, however, is post-infection.

[5] = pre-treatment 50 μg/ml CTC-96, post-treatment "μg/ml CTC-96" (figure not given)
[6] = pre-treatment 50 μg/ml CTC-96, post-treatment normal medium
[7] = pre-treatment 50 μg/ml CTC-96, post-treatment placebo
[8] = pre-treatment Placebo, post-treatment 5 μg/ml CTC-96

CC(/C=C(/C)[O-])=NCCN=C(C)/C=C(/C)[O-].Cc1ncc[nH]1.Cc1ncc[nH]1.[Br-].[Co+3] [CTC-96]
Graft Size Growth, Median ([1]; CTC-96 0.1% ointment): 60.51% | Graft Size Growth, Means ± SD ([1]; CTC-96 0.1% ointment): 64.53 ± 41.92% | Graft Size Growth, Median ([1]; CTC-96 1% ointment): 52.03% | Graft Size Growth, Means ± SD ([1]; CTC-96 1% ointment): 91.39 ± 127.84% | Effect on the growth of HPV-11-induced papillomas ([1]; mouse, in vivo): no detectable effect | Number of Transformed Foci, Exp. 1 [2]: 3 and 2 | Number of Transformed Foci, Exp. 2 [2]: 3 | Histology: grafts Negative for HPV (percent) ([3]; CTC-96 0.05%): 30% | Histology: grafts Positive for HPV (number) ([3]; CTC-96 0.05%): 16 | Histology: grafts Positive for HPV (percent) ([3]; CTC-96 0.05%): 73% | Immunocytochemistry (HPV capsid antigen): grafts Negative (percent) ([3]; CTC-96 0.05%): 48% | Immunocytochemistry (HPV capsid antigen): grafts Positive (number) ([3]; CTC-96 0.05%): 12 | Immunocytochemistry (HPV capsid antigen): grafts Positive (percent) ([3]; CTC-96 0.05%): 52% | RT-PCR (HPV-11 mRNA): grafts Negative (number) ([3]; CTC-96 0.05%): 9 | RT-PCR (HPV-11 mRNA): grafts Negative (percent) ([3]; CTC-96 0.05%): 39% | RT-PCR (HPV-11 mRNA): grafts Positive (number) ([3]; CTC-96 0.05%): 14 | RT-PCR (HPV-11 mRNA): grafts Positive (percent) ([3]; CTC-96 0.05%): 61% | Immunocytochemistry (HPV capsid antigen): grafts Negative (number) ([3]; CTC-96 0.05%, foreign body/fibrous counted as negative): 11 | Histology: grafts Negative for HPV (number) ([3]; CTC-96 0.2%): 14 | Histology: grafts Negative for HPV (percent) ([3]; CTC-96 0.2%): 67% | Histology: grafts Positive for HPV (number) ([3]; CTC-96 0.2%): 7 | Histology: grafts Positive for HPV (percent) ([3]; CTC-96 0.2%): 33% | Immunocytochemistry (HPV capsid antigen): grafts Negative (number) ([3]; CTC-96 0.2%): 15 | Immunocytochemistry (HPV capsid antigen): grafts Negative (percent) ([3]; CTC-96 0.2%): 71% | Immunocytochemistry (HPV capsid antigen): grafts Positive (number) ([3]; CTC-96 0.2%): 6 | Immunocytochemistry (HPV capsid antigen): grafts Positive (percent) ([3]; CTC-96 0.2%): 29% | RT-PCR (HPV-11 mRNA): grafts Negative (number) ([3]; CTC-96 0.2%): 17 | RT-PCR (HPV-11 mRNA): grafts Negative (percent) ([3]; CTC-96 0.2%): 81% | RT-PCR (HPV-11 mRNA): grafts Positive (number) ([3]; CTC-96 0.2%): 4 | RT-PCR (HPV-11 mRNA): grafts Positive (percent) ([3]; CTC-96 0.2%): 19% | Histology: grafts Negative for HPV (number) ([3]; CTC-96 1%): 22 | Histology: grafts Negative for HPV (percent) ([3]; CTC-96 1%): 100% | Histology: grafts Positive for HPV (number) ([3]; CTC-96 1%): 0 | Histology: grafts Positive for HPV (percent) ([3]; CTC-96 1%): 0% | Immunocytochemistry (HPV capsid antigen): grafts Negative (number) ([3]; CTC-96 1%): 22 | Immunocytochemistry (HPV capsid antigen): grafts Negative (percent) ([3]; CTC-96 1%): 100% | Immunocytochemistry (HPV capsid antigen): grafts Positive (number) ([3]; CTC-96 1%): 0 | Immunocytochemistry (HPV capsid antigen): grafts Positive (percent) ([3]; CTC-96 1%): 0% | RT-PCR (HPV-11 mRNA): grafts Negative (number) ([3]; CTC-96 1%): 14 | RT-PCR (HPV-11 mRNA): grafts Negative (percent) ([3]; CTC-96 1%): 78% | RT-PCR (HPV-11 mRNA): grafts Positive (number) ([3]; CTC-96 1%): 4 | RT-PCR (HPV-11 mRNA): grafts Positive (percent) ([3]; CTC-96 1%): 22% | Graft size (composite geometric mean diameter) versus control, FIG. 2 ([3]; all CTC-96 concentrations, 12 weeks): dramatic and highly statistically significant microbicidal effect | Histology: grafts Negative for HPV (number) ([3]; grafts pre-exposed to CTC-96 0.05%, foreign body/fibrous counted as negative): 7 | Focus formation ([4]; addition of 5 μg/ml CTC-96 to the cell cultures): effectively suppressed all focus formation | Toxicity to C127 cell cultures ([4]; addition of 10 μg/ml or 20 μg/ml CTC-96 to the cell cultures): toxic | Number of Transformed Foci, Experiment 3-1 [4, 5]: 0 | Number of Transformed Foci, Experiment 3-2 [4, 5]: 0 | Number of Transformed Foci, Experiment 3-1 [4, 6]: 71 and 46 | Number of Transformed Foci, Experiment 3-2 [4, 6]: 46 and 41 | Number of Transformed Foci, Experiment 3-1 [4, 7]: 65 and 61 | Number of Transformed Foci, Experiment 3-2 [4, 7]: 39 and 62 | Number of Transformed Foci, Experiment 3-1 [4, 8]: 0 | Number of Transformed Foci, Experiment 3-2 [4, 8]: 0 | Inhibition of the virus by pretreatment of the virus (microbicidal effect) ([4]; pretreatment of BPV-1 with 50 μg/ml CTC-96): 50-60%

Source: patent US20070142348A1, “Microbicidal, prophylactic and therapeutic effect of ctc-96 on papilloma viruses” (REDOX PHARMACEUTICAL CORPORATION, AUDUBON […] AND […], priority 2003, published 2007)
